# Laboratory results taken from article PMC8455218, “A Cornflower Extract Containing N-Feruloylserotonin Reduces Inflammation in Human Skin by Neutralizing CCL17 and CCL22 and Inhibiting COX-2 and 5-LOX” (Mediators of Inflammation, 2021).
# Target: T1, Macrophage-Derived Chemokine (MDC/CCL22) (Homo sapiens, UniProt O00626)
# T1 sequence (O00626 25-93): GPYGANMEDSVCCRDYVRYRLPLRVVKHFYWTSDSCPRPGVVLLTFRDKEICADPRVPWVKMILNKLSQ
# Test: TRIC-r calcium mobilization, Indo-1, EGFP-CCR4+Gqi5+ HEK cells
# Assay type: cell-based
smiles,measurement,value
COc1cc(/C=C/C(=O)NCCc2c[nH]c3ccc(O)cc23)ccc1O [N-Feruloylserotonin],IC50,15 µM
